{"source": "paper PMC3693115", "about": "(Evidence-based Complementary and Alternative Medicine : eCAM, 2013)", "key": {"[1]": {"assay": "DPPH microplate assay (radical scavenging activity)", "settings": "for Antioxidant IC50 (radical scavenging activity) / Antioxidant % inhibition (at 100 µg/mL): mean ± SEM (n = 3)", "protocol": "The antioxidant capacity was estimated in terms of radical scavenging activity according to a modified version of Brand-Williams method. Briefly, 100 μL of tested compounds at least 5 concentrations (dissolved in MeOH) was thoroughly mixed with 100 μL of freshly prepared DPPH solution (3 × 10^−5 M dissolved in MeOH). The reaction mixture was incubated for 30 min, then, the absorbance was read at 517 nm. Each assay was done in triplicate. IC50 value was determined by a linear regression analysis between the inhibition percentages against the concentration of tested compounds by using the Excel program."}, "[2]": {"molecular_target": "T1, AChE (purified enzyme from eel (Electrophorus electricus) type VI-s) (Electrophorus electricus, UniProt O42275)", "T1 construct": "a purified enzyme from eel (Electrophorus electricus) type VI-s; purchased Sigma (St. Louis, MO, USA); host or cells: purified from electric eel (natural source)", "T1 sequence (O42275 24-633)": "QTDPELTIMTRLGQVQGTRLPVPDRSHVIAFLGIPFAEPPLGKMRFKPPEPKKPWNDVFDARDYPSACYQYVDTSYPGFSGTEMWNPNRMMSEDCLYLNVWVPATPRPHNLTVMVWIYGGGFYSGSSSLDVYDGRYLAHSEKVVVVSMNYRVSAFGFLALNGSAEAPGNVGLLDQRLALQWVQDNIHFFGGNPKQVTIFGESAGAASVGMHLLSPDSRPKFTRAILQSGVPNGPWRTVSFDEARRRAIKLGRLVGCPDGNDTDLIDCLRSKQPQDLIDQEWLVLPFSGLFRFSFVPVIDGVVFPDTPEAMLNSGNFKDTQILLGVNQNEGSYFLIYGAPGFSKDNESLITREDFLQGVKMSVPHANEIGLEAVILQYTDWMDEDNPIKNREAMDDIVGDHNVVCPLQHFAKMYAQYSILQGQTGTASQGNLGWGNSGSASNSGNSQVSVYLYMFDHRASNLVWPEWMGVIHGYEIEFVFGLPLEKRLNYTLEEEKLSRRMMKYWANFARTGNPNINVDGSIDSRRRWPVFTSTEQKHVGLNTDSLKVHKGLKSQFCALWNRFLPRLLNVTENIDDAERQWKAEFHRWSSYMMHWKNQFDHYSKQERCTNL", "assay": "biochemical", "settings": "mean ± SEM (n = 3); for inhibition at 100 µg/mL: read-out: Anticholinesterase (using purified enzyme from E. electricus) % inhibition (at 100 µg/mL)", "protocol": "Ellman's colorimetric method and modified method using 96-well microplates were used. Briefly, […], the product of hydrolysis reaction of ACh by cholinesterase, will react with DTNB to give 2-nitro-5-thiobenzoate (NTB^−), which ionizes to the NTB^2- dianion (in water at pH 8). This NTB^2- ion appears as yellow, which is quantified by measuring the absorbance of visible light at 405 nm. Briefly, tested compound was prepared in buffer a containing 50% MeOH. In a 96-well microtiter plate, 25 μL of tested sample was added to 200 μL reaction medium that consisted of 50 μL of buffer (50 mM TrisHCl pH 8.0) containing 0.1% BSA, 125 μL of 3 mM DTNB in buffer containing 0.1 M NaCl, and 0.02 M MgCl2·2H2O and 25 μL of 15 mM ATCI in deionized water. These contents were mixed and preincubated for 5 min at 37°C. The plate was pre-read at 405 nm using a microplate reader (TECAN M200, Switzerland). Thereafter, the reaction was initiated by the addition of 25 μL of AChE (0.22 U/mL). After 20 min incubation at 37°C, absorbance was measured again within 4–7 min. The reaction control consisted of reaction medium (200 μL), 25 μL of enzyme, and 25 μL of 50% MeOH in buffer. Two blanks were also carried out (with and without sample), and MeOH was used as the solvent control. […] Each assay was done in triplicate."}, "[3]": {"molecular_target": "cellular AChE of SK-N-SH cells (Homo sapiens, UniProt P22303)", "sequence (P22303 32-614)": "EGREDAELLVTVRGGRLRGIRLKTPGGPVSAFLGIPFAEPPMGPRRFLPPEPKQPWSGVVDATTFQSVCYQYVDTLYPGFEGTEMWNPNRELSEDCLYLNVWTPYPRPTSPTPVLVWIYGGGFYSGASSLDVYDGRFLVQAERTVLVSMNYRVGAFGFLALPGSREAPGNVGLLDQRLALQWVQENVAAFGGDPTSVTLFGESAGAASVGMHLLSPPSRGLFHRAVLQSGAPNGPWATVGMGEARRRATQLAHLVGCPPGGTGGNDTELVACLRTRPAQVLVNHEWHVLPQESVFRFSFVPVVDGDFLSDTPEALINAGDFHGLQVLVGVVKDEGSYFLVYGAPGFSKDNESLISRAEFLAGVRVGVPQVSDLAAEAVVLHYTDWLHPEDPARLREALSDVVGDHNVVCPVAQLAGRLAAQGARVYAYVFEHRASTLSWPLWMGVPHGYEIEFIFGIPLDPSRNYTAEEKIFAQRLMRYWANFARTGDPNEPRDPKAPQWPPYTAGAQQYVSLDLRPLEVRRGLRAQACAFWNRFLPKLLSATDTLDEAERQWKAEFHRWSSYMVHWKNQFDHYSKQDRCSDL", "assay": "cell-based", "design": "host or cells: SK-N-SH human neuroblastoma cells", "settings": "for IC50: mean ± SEM (n = 3), read-out: Anticholinesterase (using neuroblastoma cell) IC50 (converted); for inhibition at 100 µg/mL: read-out: Anticholinesterase (using neuroblastoma cell) % inhibition (at 100 µg/mL), 100 µg/mL, mean ± SEM (n = 3)", "protocol": "The human neuroblastoma cell line SK-N-SH was purchased from the American Type Culture Collection (Manassas, VA, USA). The SK-N-SH cells were cultured in minimum essential medium from Gibco (California, USA), supplemented with 10% heat inactivated FBS, 2% supplementary amino acid solution, and 1% Glutamax (Gibco, California, USA), 1% penicillin/streptomycin. Incubation was carried out at 37°C in a humidified atmosphere of 5% CO2-95% […] atmosphere. Cells were seeded into 96-well microplates (Nunc, Roskilde, Denmark) at a density of 1 × 10^5 cells/mL (100 μL in each well). Experiments were carried out after 24 h of seeding.\nOne of the important neuronal properties of SK-N-SH cells is the synthesis of neurotransmitter enzymes. The inhibition activity of samples on this cell line was investigated by the modified Ellman's colorimetric method. The condition was slightly modified to enable the cellular enzyme to work properly. Briefly, 25 μL of sample dissolved in buffer containing 50% methanol, 100 μL of 3 mM DTNB in buffer containing 0.1 M NaCl and 0.02 M MgCl2·2H2O, and 25 μL of 15 mM ATCI in deionized water were added to the well containing 100 μL of the cells. The absorbance at 405 nm was measured by a microplate reader (TECAN M200, Switzerland). All assays were done in triplicate."}, "in vitro": {"assay": "in vitro", "format": "cell-based", "settings": "mouse", "experimental": "The exponentially grown cultures indicated the cells density by trypan blue exclusion assay. Then, neuronal differentiation was induced by seeding 2 × 10^6 cells/mL cell in a 100 mm bacteriological grade culture dish containing 10 mL α-MEM supplemented with 5% FBS, 1% antibiotics-antimycotic solution, and 0.5 μM RA. […] After 4 days of RA treatment, aggregates were dissociated with trypsin, washed, resuspended on poly-L-lysine-precoated 96-well plates (plates were previously coated with 50 μg/mL poly-L-lysine dissolved in PBS for overnight and sterilized under UV light for 30 min) at a cell density of 7 × 10^4 cells/mL (150 μL/well) in α-MEM supplemented with 10% FBS and 1% antibiotics-antimycotic solution, and incubated for 24 h. Ara-C (10 μM) was added at day one after plating to inhibit the proliferation of nonneuronal cells. […]\nThe procedure was carried out on P19-derived neurons cultured in a 96-well plate [29]. […] The data were expressed as the mean ± SEM (n = 3), with the medium as a control representing 100% cell viability."}, "P19-derived neurons [4]": {"tested_on": "P19-derived neurons", "assay": "Neuritogenic assay (neurite number and length)", "format": "cell-based, Murine", "settings": "1 nM, 24 h, 30 neurons measured", "protocol": "Murine P19 embryonic carcinoma cells were purchased from American Type Culture Collection (ATCC), USA. P19 cells were cultured as described by Mcburney in a slightly modification. In brief, the undifferentiated P19 cells were cultured as monolayers in α-MEM with 7.5% NCS, 2.5% FBS, and 1% antibiotics-antimycotic solution in a 25-cm^2 tissue culture flask, incubated at 37°C in a humidified atmosphere of 5% CO2. Cells in monolayer cultures were maintained in exponential growth phase by subculturing every 2 days until use.\nThe exponentially grown cultures indicated the cells density by trypan blue exclusion assay. Then, neuronal differentiation was induced by seeding 2 × 10^6 cells/mL cell in a 100 mm bacteriological grade culture dish containing 10 mL α-MEM supplemented with 5% FBS, 1% antibiotics-antimycotic solution, and 0.5 μM RA. […]\nThe assay was carried out with P19-derived neurons cultured in a poly-L-lysine-precoated 6-well plate. […] Average length and number of neurites of 30 neurons from the assay were measured. […] The data were expressed as the mean ± SEM from three independent experiments."}, "P19-derived neurons [5]": {"tested_on": "P19-derived neurons", "assay": "Neuroprotective activity against oxidative stress induced by serum deprivation (XTT)", "format": "cell-based, Murine", "settings": "1 nM, 24 h", "experimental": "Murine P19 embryonic carcinoma cells were purchased from American Type Culture Collection (ATCC), USA. P19 cells were cultured as described by Mcburney [24, 25] in a slightly modification [26, 27]. In brief, the undifferentiated P19 cells were cultured as monolayers in α-MEM with 7.5% NCS, 2.5% FBS, and 1% antibiotics-antimycotic solution in a 25-cm^2 tissue culture flask, incubated at 37°C in a humidified atmosphere of 5% CO2. Cells in monolayer cultures were maintained in exponential growth phase by subculturing every 2 days until use.\nThe blank control was cultured in α-MEM supplemented with 10% FBS and 10 μM Ara-C. The cell survival ability was measured using the XTT method."}}, "data": [{"smiles": "O=C1O[C@H]([C@@H](O)CO)C(O)=C1O", "note": "[Ascorbic acid, reference compound]", "values": [{"measurement": "Antioxidant IC50 (radical scavenging activity)", "setting": "[1]", "value": "10.52 ± 0.48", "unit": "µg/mL"}]}, {"smiles": "O=C(O)c1cc(O)c(O)c(O)c1", "note": "[Gallic acid]", "values": [{"measurement": "Antioxidant % inhibition (at 100 µg/mL)", "setting": "[1]", "value": "94.76 ± 0.51", "unit": "%"}, {"measurement": "Antioxidant IC50 (radical scavenging activity)", "setting": "[1]", "value": "4.83 ± 0.02", "unit": "µg/mL"}, {"measurement": "IC50", "setting": "[2]; read-out: Anticholinesterase (using purified enzyme from E. electricus) IC50 (converted)", "value": 74.8, "unit": "µM"}, {"measurement": "inhibition at 100 µg/mL", "setting": "[2]", "value": "73.64 ± 0.06", "unit": "%"}, {"measurement": "IC50", "setting": "[3]", "value": 16.4, "unit": "µM"}, {"measurement": "inhibition at 100 µg/mL", "setting": "[3]", "value": "90.7 ± 2.66", "unit": "%"}]}, {"smiles": "O=c1c(O)c(-c2ccc(O)c(O)c2)oc2cc(O)cc(O)c12", "note": "[Quercetin, 3,3′,4′,5,7-pentahydroxyflavone]", "values": [{"measurement": "Antioxidant % inhibition (at 100 µg/mL)", "setting": "[1]", "value": "92.61 ± 0.99", "unit": "%"}, {"measurement": "IC50", "setting": "[1]; converted to molar, read-out: Antioxidant activity IC50 in micromolar range", "value": 9.4, "unit": "µM"}, {"measurement": "Antioxidant IC50 (radical scavenging activity)", "setting": "[1]", "value": "3.18 ± 0.07", "unit": "µg/mL"}, {"measurement": "inhibition at 100 µg/mL", "setting": "[2]", "value": "80.9 ± 2.52", "unit": "%"}, {"measurement": "IC50 at 18 h", "setting": "in vitro", "value": "> 10", "unit": "µM"}, {"measurement": "viability at 24 h, 0.001 µM", "setting": "in vitro; 1 nM, 24 h treatment, relative to control (100%), read-out: % cell viability of cultured neurons", "value": "> 100", "unit": "%"}, {"measurement": "Neurite length", "setting": "P19-derived neurons [4]", "value": "139.00 ± 108.80", "unit": "μm"}, {"measurement": "Cell survival in serum-supplemented culture", "setting": "P19-derived neurons [5]; compared to the control (P19SM)", "value": 128.01, "unit": "%"}, {"measurement": "Cell survival in serum-deprived culture", "setting": "P19-derived neurons [5]; serum-free α-MEM, serum deprivation alone 31.16%", "value": 88.29, "unit": "%"}, {"measurement": "IC50", "setting": "[3]", "value": 121, "unit": "µM"}, {"measurement": "inhibition at 100 µg/mL", "setting": "[3]", "value": "82 ± 3.34", "unit": "%"}]}, {"smiles": "Cc1c(C)c2c(c(C)c1O)CCC(C)(C(=O)O)O2", "note": "(centres unmarked) [Trolox, reference compound]", "values": [{"measurement": "Antioxidant IC50 (radical scavenging activity)", "setting": "[1]", "value": "12.54 ± 0.89", "unit": "µg/mL"}]}, {"smiles": "COC1=C2C[C@@H](C)C[C@H](OC)[C@H](O)[C@@H](C)/C=C(\\C)[C@H](OC(N)=O)[C@@H](OC)/C=C\\C=C(/C)C(=O)NC(=CC1=O)C2=O", "note": "[geldanamycin, Geldanamycin, reference compound]", "values": [{"measurement": "Amount of neurites", "setting": "P19-derived neurons [4]", "value": "2.03 ± 1.30"}]}]}
